# Where two headings read alike, the source gives them in different places.
# Key:
# [1] = tested on: Gaeumannomyces graminis var. tritici (Ggt); assay: In vitro assay: mycelial growth on minimal media agar plates (Percent Inhibition; IC50); type: cell-based; details: for inhibition at 0.1 ppm: read-out: In vitro(ppm) 0.1, Percent Inhibition; for inhibition at 1 ppm: read-out: In vitro(ppm) 1, Percent Inhibition; for inhibition at 10 ppm: read-out: In vitro(ppm) 10, Percent Inhibition; for IC50: interpolated from percent inhibition at 1, 0.1, 0.01, 0.001 and 0.0001 ppm
# Description: The test compounds (0.25 mL of an appropriate stock solution in acetone) are incorporated into 25 mL minimal media agar [prepared by autoclaving a solution of 17.5 g Czapek Dox broth (Difco), 7.5 g purified agar or Bacto-agar (Difco), and 500 mL distilled/deionized water, and then adding 50 µL of 1 mg/mL thiamine hydrochloride and 50 µL of 1 mg/mL biotin in 5% ethanol] and plates are prepared.
# Each plate is inoculated by placing in a triangular shape three 4-mm plugs of Gaeumannomyces graminis var. tritici (Ggt) grown on the minimal media agar described above. The plates are incubated in the dark at 19 - 20 °C for 4 to 5 days. The growth of the fungus is measured as the diameter of the mycelial growth. The result is expressed as Percent Inhibition, calculated as [1 - [(mm growth on treated plate - 4)/(mm growth on control plate - 4)]] x 100.
# To determine IC5O values, an in vitro assay was run on each compound at the concentrations of 1, 0.1, 0.01, 0.001, and 0.0001 ppm. The percent inhibition was calculated for each concentration using the equation described in the in vitro assay under the section on Biological Assays. Using the two ordered pairs of (concentration, % inhibition) that bracket 50% inhibition of fungal growth, the concentration for 50% inhibition is calculated from the following equation. IC50 = [(50-I2 )C1 + (I1 -50)C2 ]/(I1 -I2 ), [formula] where C1 = 10C2.
# Ggt [2] = assay: In vivo assay: control of Ggt on wheat in 3-inch pots with infested soil, rated after four weeks;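 on In vivo(ppm) 0.1, percent disease control: rate is mg active ingredient per pot in 3 mL solution not ppm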;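 on In vivo(ppm) 0.5, percent disease control: rate is mg active ingredient per pot in 3 mL solution not ppm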; set-up: species or system Gaeumannomyces graminis var. tritici; details: Gaeumannomyces graminis, 672 h; for pest or weed control at 0.02 mg/pot: read-out: In vivo(ppm) 0.02mg/pot, percent disease control; for pest or weed control at 0.1 mg/pot: read-out: In vivo(ppm) 0.1, percent disease control; for pest or weed control at 0.5 mg/pot: read-out: In vivo(ppm) 0.5, percent disease control
# Description: Compounds are tested for control of Ggt on 'Bergen' or 'Anza' varieties of wheat grown in 3-inch square pots containing soil infested with Ggt. The infestation is accomplished by mixing the soil with an inoculum prepared by growing Ggt on 1/4 strength potato dextrose agar (4.875 g potato dextrose agar, 5.0 g Bacto agar, 500 mL distilled, deionized water) in plates and using plugs from the plates to infest sterile oats (400 cc whole oats, 350 mL deionized water, autoclaved). After a one-month incubation period at room temperature, the oats are dried and mixed with the soil at 4% v/v. Four wheat seeds are placed on top of the soil in each pot. […] Five pots are used for each treatment level and the controls, which are untreated, inoculated and non-inoculated pots. After one hour drying time, the seeds are covered with more of the appropriate soil and a layer of vermiculite. The pots are placed in a growth chamber and watered each day. After four weeks, each pot is evaluated for evidence of disease by examination of the seminal roots of each plant under a dissecting microscope. A 0 to 5 rating scale having the following meanings is used: • 0 = no runner hyphae or lesions present • 1 = runner hyphae and a few small lesions present on <10% of root system • 2 = runner hyphae and small lesions present on 10 - 25% of root system • 3 = runner hyphae and lesions present on 25 - 50% of root system • 4 = runner hyphae and many, large, coalescing lesions on >50% of root system • 5 = root system and culm completely inundated with lesions and runner hyphae
# From each set of five replicates a high or low score may be eliminated to assure the best representative scores are used to calculate a replicate mean by averaging the remaining scores. This mean score is then compared to the untreated control score and a percent disease control is calculated.
# Ggt [3] = assay: In vivo (8 week) seed treatment assay: Large Pot Greenhouse Take-All Assay; set-up: species or system Gaeumannomyces graminis var. tritici; details: wheat, 6-inch pots, roots rated after 7-10 weeks; for % control (rates are g/kg seed) 0.125: seed treatment 0.125 g/kg seed; for % control (rates are g/kg seed) 0.25: seed treatment 0.25 g/kg seed; for % control (rates are g/kg seed) 0.5: seed treatment 0.5 g/kg seed; for % control (rates are g/kg seed) 1 g: seed treatment 1 g/kg seed
# Description: An advanced 8-week seed treatment in vivo assay in soil is as follows.
# Compounds are tested for control of Ggt on 'Bergen' or 'Anza' varieties of wheat grown in 6-inch round pots containing soil (equal to thirds of Metro-mix, sand, and silt-loam field soil, all steam sterilized). Seeds are treated with a solution of compound of the present invention at 10,000 ppm stock solution in acetone. 20 mg in 2 ml will treat 10 g of seed at each of 4 rates. Using a 10,000 ppm stock for each compound make the following dilutions series:
# A treatment jar is rinsed 2 times with 3 ml of actone. Then 1 ml of the solution is swirled to cover the base of the jar. 10 g of seed are added to the jar and capped after which the jar is swirled and shaken until the seeds get a rapid and even coverage. After about 30-50 seconds the lid is removed as the shaking is continued. After 1 minute the jar is set down to dry. When dry, the seed are poured back into the envelope for either planting in the pots or stored until such planting. The method of planting is as follows:
# The 6-inch pots are packed to their ledge with the above soil mix.
# a) Treated seed is placed on the surface of the soil (packed to ledge) at the rate of 8 seeds per pot with the seeds about 2-3 inches apart. 5 pots (replicates) are planted per treatment. b) 15 ml of oat inoculum (about 4g) are measured and sprinkled evenly over the soil surface of each pot. c) The soil/seed/inoculum is covered with 180 ml of soil mix (same as above). A 150 ml beaker filled to the top edge-is about 180 ml. d) Initially each of the prepared pots is watered lightly several times to wet soil without washing out seeds. e) In cool winter months the prepared pots are left in the greenhouse at 16° - 18°C with only minimal supplemental light. In warmer months the prepared pots are put in a growth chamber set at 17°C for 3-4 weeks to establish disease, then placed in a greenhouse until harvest. The wheat is harvested, washed, and the roots are rated after 7-10 weeks. f) A % of diseased root area is assigned values using 1, 5, 10, 20, 30, 40, 50, 60, 80, or 100 %. Each pot of plants gets a single rating.
# [4] = 0.1 ppm in agar, 19 - 20 °C, 4 to 5 days
# [5] = 1 ppm in agar, 19 - 20 °C, 4 to 5 days
# [6] = 10 ppm in agar, 19 - 20 °C, 4 to 5 days
# [7] = rate 0.02mg/pot, wheat, soil infested with Ggt, after four weeks
# [8] = rate 0.1 (head prints ppm, head line ends mg/pot), wheat, soil infested with Ggt, after four weeks, N = no control
# [9] = rate 0.5 (head prints ppm, head line ends mg/pot), wheat, soil infested with Ggt, after four weeks, N = no control
SMILES,"inhibition at 0.1 ppm [1, 4] [%]","inhibition at 1 ppm [1, 5] [%]","inhibition at 10 ppm [1, 6] [%]",pest or weed control at 0.02 mg/pot (Ggt [2]; [7]) [%],pest or weed control at 0.1 mg/pot (Ggt [2]; [8]) [%],pest or weed control at 0.5 mg/pot (Ggt [2]; [9]) [%],% control (rates are g/kg seed) 0.125 (Ggt [3]) [%],% control (rates are g/kg seed) 0.25 (Ggt [3]) [%],% control (rates are g/kg seed) 0.5 (Ggt [3]) [%],% control (rates are g/kg seed) 1 g (Ggt [3]) [%],IC50 [1] [ng/mL],inhibition at 0.1 ppm [1] [%],inhibition at 1 ppm [1] [%],inhibition at 10 ppm [1] [%],pest or weed control at 0.02 mg/pot (Ggt [2]; soil) [%],pest or weed control at 0.1 mg/pot (Ggt [2]; soil) [%],pest or weed control at 0.5 mg/pot (Ggt [2]; soil) [%]
"CCNC(=O)c1c(OC(C)(C)CC)ccc2ccccc12 [Example 26, N-ethyl 2-[(1,1-dimethylpropyl)oxy]-1-naphthamide]",76,95,98,17,56,84,25,25,4,25,–,–,–,–,–,–,–
"C=CCNC(=O)c1c(OC(C)(C)CC)ccc2ccccc12 [Example 27, N-allyl 2-[(1,1-dimethylpropyl)oxy]-1-naphthamide]",93,98,98,27,75,95,21,21,0,25,8.44,–,–,–,–,–,–
"C=CCNC(=O)c1c(OC(C)(CC)CC)ccc2ccccc12 [Example 29, N-allyl 2-[(1,1-diethylethyl)oxy]-1-naphthamide]",96,96,96,40,57,75,–,0,4,4,8.14,–,–,–,–,–,–
"CCN(CC)C(=O)c1c(OC(C)(CC)CC)ccc2ccccc12 [Example 30, N,N-diethyl 2-[(1,1-diethylethyl)oxy]-1-naphthamide]",91,96,96,31,43,28,–,22,0,13,7.43,–,–,–,–,–,–
"CCCNC(=O)c1c(OC(CC)(CC)CC)ccc2ccccc12 [Example 34, N-propyl 2-[(1,1-diethylpropyl)oxy]-1-naphthamide]",95,95,95,18,44,49,–,17,0,9,6.62,–,–,–,–,–,–
"C=CCNC(=O)c1c(OC2(C)CCCC2)ccc2ccccc12 [Example 37, N-allyl 2-[(1-methyl-1-cyclopentyl)oxy]-1-naphthamide]",93,98,98,28,53,63,4,4,4,4,7.43,–,–,–,–,–,–
"CCCNC(=O)c1c(OC2(C)CCCCC2)ccc2ccccc12 [Example 40, N-propyl 2-[(1-methyl-1-cyclohexyl)oxy]-1-naphthamide]",74,83,98,3,32,60,–,13,13,22,63.6,–,–,–,–,–,–
"CCNC(=O)c1c([Si](C)(C)C)ccc2occc12 [Example 42, N-ethyl 5-trimethylsilyl benzofuran-4-carboxamide]",–,–,–,–,–,–,–,–,–,–,–,90,98,100,68,87,91
"CCNC(=O)c1c([Si](C)(C)C)ccc2ccsc12 [Example 43, N-ethyl 6-trimethylsilyl benzothiophene-7-carboxamide]",–,–,–,–,–,–,–,–,–,–,–,98,100,100,50,79,88

# Reference: patent publication EP0619297B1, “Fungicides for the control of take-all desease of plants” (MONSANTO COMPANY, priority 1993, dated 1994)
